Test results reported in ChEMBL document CHEMBL5532714, “Discovery of Kebanmycins with Antibacterial and Cytotoxic Activities from the Mangrove-Derived Streptomyces sp. SCSIO 40068” (J Nat Prod, 2024).
Converted amounts (≈) assume the structure as drawn. Counter-ions that a name gives are not always drawn.

Tests used:
Bacillus subtilis = assay: Antibacterial activity against Bacillus subtilis 1064 assessed as bacterial growth inhibition incubated for 16 hrs by broth microdilution method; type: functional
[1] = (§1) Cytotoxicity against human HepG2 cells assessed as cell growth inhibition; type: toxicity, cell-based; conditions: HepG2 cells
Staphylococcus aureus [2] = assay: Antibacterial activity against Staphylococcus aureus ATCC 29213 assessed as bacterial growth inhibition incubated for 16 hrs by broth microdilution method; type: functional
Staphylococcus aureus [3] = assay: Antibacterial activity against methicillin-resistant Staphylococcus aureus 991 assessed as bacterial growth inhibition incubated for 16 hrs by broth microdilution method; type: functional
Acinetobacter baumannii = assay: Antibacterial activity against Acinetobacter baumannii 19606 assessed as bacterial growth inhibition incubated for 16 hrs by broth microdilution method; type: functional
Staphylococcus aureus [4] = assay: Antibacterial activity against methicillin-resistant Staphylococcus aureus 1862 assessed as bacterial growth inhibition incubated for 16 hrs by broth microdilution method; type: functional
Vibrio alginolyticus = assay: Antibacterial activity against Vibrio alginolyticus ATCC 13214 assessed as bacterial growth inhibition incubated for 16 hrs by broth microdilution method; type: functional
Staphylococcus aureus [5] = assay: Antibacterial activity against methicillin-resistant Staphylococcus aureus 669 assessed as bacterial growth inhibition incubated for 16 hrs by broth microdilution method; type: functional
Staphylococcus aureus [6] = assay: Antibacterial activity against methicillin-resistant Staphylococcus aureus shhs-A1 assessed as bacterial growth inhibition incubated for 16 hrs by broth microdilution method; type: functional
[7] = (§2) Cytotoxicity against human MCF7 cells assessed as cell growth inhibition; type: toxicity, cell-based; conditions: MCF7 cells
HepG2 = assay: as §1; type: toxicity, cell-based; conditions: hepg2
MCF7 = assay: as §2; type: toxicity, cell-based; conditions: mcf7

CN[C@H](CC(C)C)C(=O)N[C@H]1C(=O)N[C@@H](CC(N)=O)C(=O)N[C@H]2C(=O)N[C@H]3C(=O)N[C@H](C(=O)N[C@H](C(=O)O)c4cc(O)cc(O)c4-c4cc3ccc4O)[C@H](O)c3ccc(c(Cl)c3)Oc3cc2cc(c3O[C@@H]2O[C@H](CO)[C@@H](O)[C@H](O)[C@H]2O[C@H]2C[C@](C)(N)[C@H](O)[C@H](C)O2)Oc2ccc(cc2Cl)[C@H]1O [VANCOMYCIN]
MIC (Bacillus subtilis): 0.25 µg/mL (≈ 0.173 µM)

CCC[C@@H]1Cc2cc3c(c(O)c2C(=O)O1)-c1c(c(OC)c2oc4ccc(O)c(O)c4c(=O)c2c1O)[C@H](O)[C@H]3O
IC50 [1]: 13 µM | MIC (Staphylococcus aureus [2]): 8 µg/mL (≈ 14.9 µM) | MIC (Staphylococcus aureus [3]): 8 µg/mL (≈ 14.9 µM) | MIC (Acinetobacter baumannii): 64 µg/mL (≈ 119 µM) | MIC (Bacillus subtilis): 16 µg/mL (≈ 29.8 µM) | MIC (Staphylococcus aureus [4]): 4 µg/mL (≈ 7.46 µM) | MIC (Vibrio alginolyticus): 32 µg/mL (≈ 59.6 µM) | MIC (Staphylococcus aureus [5]): 8 µg/mL (≈ 14.9 µM) | MIC (Staphylococcus aureus [6]): 8 µg/mL (≈ 14.9 µM) | IC50 [7]: 0.46 µM

CCC[C@@H]1Cc2cc3c(c(O)c2C(=O)O1)-c1c(c(OC)c2oc4ccc(O[C@H]5C[C@@H](O)[C@H](O)[C@@H](C)O5)c(O)c4c(=O)c2c1O)[C@H](O)[C@H]3O
IC50 [1]: 31 µM | MIC (Staphylococcus aureus [2]): 0.5 µg/mL (≈ 0.75 µM) | MIC (Staphylococcus aureus [3]): 2 µg/mL (≈ 3 µM) | MIC (Acinetobacter baumannii): > 64 µg/mL | MIC (Bacillus subtilis): 4 µg/mL (≈ 6 µM) | MIC (Staphylococcus aureus [4]): 1 µg/mL (≈ 1.5 µM) | MIC (Vibrio alginolyticus): > 64 µg/mL | MIC (Staphylococcus aureus [5]): 2 µg/mL (≈ 3 µM) | MIC (Staphylococcus aureus [6]): 0.5 µg/mL (≈ 0.75 µM) | IC50 [7]: 0.76 µM

CCC[C@@H]1Cc2cc3c(c(O)c2C(=O)O1)-c1c(c(OC)c2oc4ccc(O[C@H]5C[C@@H](O)[C@H](O[C@H]6C[C@@H](O)[C@H](O[C@H]7C[C@@H](OC)[C@H](O)[C@@H](C)O7)[C@@H](C)O6)[C@@H](C)O5)c(O)c4c(=O)c2c1O)C[C@H]3O
IC50 [1]: 0.25 µM | MIC (Staphylococcus aureus [2]): 0.125 µg/mL (≈ 0.135 µM) | MIC (Staphylococcus aureus [3]): 0.5 µg/mL (≈ 0.541 µM) | MIC (Acinetobacter baumannii): > 64 µg/mL | MIC (Bacillus subtilis): > 64 µg/mL | MIC (Staphylococcus aureus [4]): 0.125 µg/mL (≈ 0.135 µM) | MIC (Vibrio alginolyticus): > 64 µg/mL | MIC (Staphylococcus aureus [5]): 0.5 µg/mL (≈ 0.541 µM) | MIC (Staphylococcus aureus [6]): 0.125 µg/mL (≈ 0.135 µM) | IC50 [7]: 0.12 µM

O=C(O)c1cn(C2CC2)c2cc(N3CCNCC3)c(F)cc2c1=O [CIPROFLOXACIN]
MIC (Acinetobacter baumannii): 0.125 µg/mL (≈ 0.377 µM) | MIC (Vibrio alginolyticus): 0.125 µg/mL (≈ 0.377 µM)

CCC[C@@H]1Cc2cc3c(c(O)c2C(=O)O1)-c1c(c(OC)c2oc4ccc(O[C@H]5C[C@@H](O)[C@H](O[C@H]6C[C@@H](O)[C@H](O[C@H]7C[C@@H](O)[C@H](O)[C@@H](C)O7)[C@@H](C)O6)[C@@H](C)O5)c(O)c4c(=O)c2c1O)[C@H](O)[C@H]3O
IC50 [1]: 4.4 µM | MIC (Staphylococcus aureus [2]): 2 µg/mL (≈ 2.16 µM) | MIC (Staphylococcus aureus [3]): 2 µg/mL (≈ 2.16 µM) | MIC (Acinetobacter baumannii): > 64 µg/mL | MIC (Bacillus subtilis): 1 µg/mL (≈ 1.08 µM) | MIC (Staphylococcus aureus [4]): 1 µg/mL (≈ 1.08 µM) | MIC (Vibrio alginolyticus): > 64 µg/mL | MIC (Staphylococcus aureus [5]): 2 µg/mL (≈ 2.16 µM) | MIC (Staphylococcus aureus [6]): 2 µg/mL (≈ 2.16 µM) | IC50 [7]: 1.8 µM

CCCC(=O)Cc1cc2c(c(O)c1C(=O)O)-c1cc3c(c(O)c1CC2)C(=O)c1c(O)cc(O)cc1C3=O
Activity (HepG2): Non-Toxic | MIC (Staphylococcus aureus [2]): 32 µg/mL (≈ 63.7 µM) | MIC (Staphylococcus aureus [3]): 16 µg/mL (≈ 31.8 µM) | MIC (Acinetobacter baumannii): > 64 µg/mL | MIC (Bacillus subtilis): > 64 µg/mL | MIC (Staphylococcus aureus [4]): 16 µg/mL (≈ 31.8 µM) | MIC (Vibrio alginolyticus): > 64 µg/mL | MIC (Staphylococcus aureus [5]): 16 µg/mL (≈ 31.8 µM) | MIC (Staphylococcus aureus [6]): 16 µg/mL (≈ 31.8 µM) | Activity (MCF7): Non-Toxic

CCC[C@@H]1Cc2cc3c(c(O)c2C(=O)O1)-c1c(c(OC)c2oc4ccc(O[C@H]5C[C@@H](O)[C@H](O[C@H]6C[C@@H](O)[C@H](O[C@H]7C[C@@H](OC)[C@H](O)[C@@H](C)O7)[C@@H](C)O6)[C@@H](C)O5)c(O)c4c(=O)c2c1O)[C@H](O)[C@H]3O
IC50 [1]: 7.9 µM | MIC (Staphylococcus aureus [2]): 2 µg/mL (≈ 2.13 µM) | MIC (Staphylococcus aureus [3]): 1 µg/mL (≈ 1.06 µM) | MIC (Acinetobacter baumannii): > 64 µg/mL | MIC (Bacillus subtilis): 0.125 µg/mL (≈ 0.133 µM) | MIC (Staphylococcus aureus [4]): 1 µg/mL (≈ 1.06 µM) | MIC (Vibrio alginolyticus): > 64 µg/mL | MIC (Staphylococcus aureus [5]): 2 µg/mL (≈ 2.13 µM) | MIC (Staphylococcus aureus [6]): 2 µg/mL (≈ 2.13 µM) | IC50 [7]: 4.1 µM

COc1cccc2c1C(=O)c1c(O)c3c(c(O)c1C2=O)C[C@@](O)(C(=O)CO)C[C@@H]3O[C@H]1C[C@H](N)[C@H](O)[C@H](C)O1 [DOXORUBICIN HYDROCHLORIDE]
IC50 [1]: 3.1 µM
